US10023593B2, “ALK kinase inhibitor, and preparation method and uses thereof” (BEIJING PEARL BIOTECHNOLOGY LIMITED LIABILITY COMPANY, priority 2014, dated 2018)

Assays:
NCI-H2228 cell line = assay: CellTiter-Glo cell proliferation inhibition on NCI-H2228 cell line; type: cell-based; conditions: Homo sapiens, NCI-H2228, 96 h, NCI-H2228 cells, 5000 cells/well, 4 days drug treatment
Summary of the method: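 NCI-H2228 cells, 5000/well in RPMI-1640 + 10% FBS, treated with compounds 2 h after seeding (0.5% DMSO final) for 4 days at 37° C. Viability by CellTiter-Glo luminescence; inhibition relative to DMSO control, IC50 from curve fit.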

cytochrome P450 1A2 = molecular target: T1, cytochrome P450 1A2 (Homo sapiens, UniProt P05177); assay: Inhibitory activity on cytochrome P450 1A2; type: in vitro ADME; conditions: no significant inhibition
T1 sequence (P05177 1-516): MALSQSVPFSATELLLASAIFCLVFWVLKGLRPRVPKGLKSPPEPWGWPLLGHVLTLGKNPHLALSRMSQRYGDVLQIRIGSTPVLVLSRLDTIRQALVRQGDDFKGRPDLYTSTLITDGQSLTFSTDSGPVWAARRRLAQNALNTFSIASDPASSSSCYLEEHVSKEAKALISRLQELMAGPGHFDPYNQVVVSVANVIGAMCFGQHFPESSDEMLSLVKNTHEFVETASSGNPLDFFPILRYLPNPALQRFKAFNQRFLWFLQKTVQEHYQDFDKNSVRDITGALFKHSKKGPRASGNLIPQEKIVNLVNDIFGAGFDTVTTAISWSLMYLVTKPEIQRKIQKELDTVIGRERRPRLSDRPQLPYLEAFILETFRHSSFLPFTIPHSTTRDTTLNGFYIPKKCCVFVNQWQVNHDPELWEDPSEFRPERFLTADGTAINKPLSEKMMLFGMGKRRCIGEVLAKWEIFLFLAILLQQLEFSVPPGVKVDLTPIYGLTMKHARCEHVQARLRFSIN

cytochrome P450 2C9 = cytochrome P450 2C9 (Homo sapiens, UniProt P11712); assay: Inhibitory activity on cytochrome P450 2C9; type: in vitro ADME; conditions: no significant inhibition
cytochrome P450 2C19 = cytochrome P450 2C19 (Homo sapiens, UniProt P33261); assay: Inhibitory activity on cytochrome P450 2C19; type: in vitro ADME; conditions: no significant inhibition
cytochrome P450 2D6 = cytochrome P450 2D6 (Homo sapiens, UniProt P10635); assay: Inhibitory activity on cytochrome P450 2D6; type: in vitro ADME; conditions: no significant inhibition
cytochrome P450 3A4 = cytochrome P450 3A4 (Homo sapiens, UniProt P08684); assay: Inhibitory activity on cytochrome P450 3A4; type: in vitro ADME; conditions: no significant inhibition
Karpas-299 cell line = assay: CellTiter-Glo cell proliferation inhibition on Karpas-299 cell line; type: cell-based; conditions: Homo sapiens, 96 h, Karpas-299 cells, 5000 cells/well, 4 days drug treatment
Description: 4. Cell Proliferation Inhibitory Activities of the Compounds of the Present Invention on Karpas-299 Cell Line
? experimental method ? CellTiter-Glo® Luminescent Cell Viability Assay kit from Promega company was used to detect cell proliferation inhibitory activities of the compounds on Karpas-299 cell line.
? instrument ? Envision 2104 plate reader from PerKinElmer company; Vi-Cell XR cell counter from Beckman Counter company; MCO-18AIC CO2 incubator from SANYO company.
? experiment material ? CellTiter-Glo® Luminescent Cell Viability Assay Kit (Promega company, catalog No. G7573); Karpas-299 cell line (DSMZ, catalog No. ACC31); RPMI-1640 medium (HyClone company, catalog No. SH30809.01B); fetal bovine serum (FBS) (Gibco company, catalog No. 10099-141); PBS (HyClone company, catalog No. SH30256.01B); 96 wells cell culture plate (Corning company, catalog No. 3610); DMSO (AMRESCO company, catalog No. 0231); 96 wells plates (for diluting compounds) (CITOTEST company, catalog No. Ref36020096D);
? experimental condition ? Karpas-299 cells in exponential growth phase were collected and viable cells were counted by Vi-Cell XR cell counter. Cell suspension was adjusted to 62500 cells/ml with culture medium (RPMI-1640+10% FBS). 80 μl cell suspension was added into each well of 96 wells cell culture plate so that so that the final cell number of Karpas-299 cells was 5000 cells/well. The cells were cultivated in an incubator with an atmosphere of 37° C., 5% CO2 and 95% humidity for 2 hours and then each well was added with 20 μl compounds in RPMI-1640 medium solution (the final concentration of DMSO was 0.5%). 4 days after drug treatment, each well was added with 50 μl CellTiter-Glo solution which was previously thawed and equilibrated to room temperature, and mixed for 2 minutes with microplate shaker. After placing at room temperature for 10 minutes, luminescence reading value was measured with PerkinElmer Envision 2104 plate reader and the data was analyzed.
? tested samples ? Compounds of the examples.
Luminescence value of DMSO solvent control (Vvehicle control, which is the mean luminescence value from DMSO solvent control group)
Tested luminescence value (Vsample, which is the luminescence value from given concentration of compounds group) Inhibition rate (%)=(1−Vsample/Vvehicle control)×100
(§1) ? data processing ? IC50 of compounds was calculated by using XLfit program in Excel.

Wild Type ALK kinase = molecular target: T2, Wild Type ALK kinase (Homo sapiens, UniProt Q9UM73); assay: HTRF KinEASE-TK assay, inhibitory activity on wild type ALK kinase; type: biochemical; conditions: wild type ALK 1 ng/μl, substrate 1 μM, 30° C. 35 minutes, read-out: Inhibition on ALK kinases (wildtype), IC50
T2 construct: purchased Sino-US Crown Bioscience, Inc. batch number ALK 20110607
Text: 1. Inhibitory Activities of the Compounds of the Present Invention on Wild Type ALK Kinases
? experimental method ? HTRF KinEASE™-TK Assay kit from Cisbio company was used to detect inhibitory activities of the compounds on wildtype ALK kinases (wild type ALK kinases).
(§2) ? instrument ? Envision 2104 plate reader from PerKinElmer company.
(§3) ? experiment material ? HTRF KinEASE™-TK Assay Kit (Cisbio company, catalog No. 62TK0PEC); Wild Type ALK kinase (produced by Sino-US Crown Bioscience, Inc., batch number ALK 20110607); DTT (Gibco BRL company, catalog No. 15508-012); MgCl2 (Sigma Aldrich company, catalog No. M-2670); ATP (Sigma Aldrich company, catalog No. A-7699); DMSO (AMRESCO company, catalog No. 0231); EDTA (AMRESCO company, catalog No. 0105); 96 wells plates (for diluting compounds) (CITOTEST company, catalog No. Ref36020096D); OptiPlate™-384 (White), PerkinElmer company, catalog No. P12-004)
(§4) ? experimental condition ? Compounds (the final concentration of DMSO was 1%), the reaction substrate (the final concentration was 1 μM), ATP (the final concentration was 2004), and Wildtype ALK kinases (the final concentration was 1 ng/μl) were mixed respectively in a final volume of 10 μl reaction system (containing 5 mM MgCl2, 1× Kinase buffer, and 1 mM DTT). The mixture was reacted at 30° C. for 35 minutes after shaking for 30 seconds. After completion of the reaction, each well was added with 5 μl Sa-XL665 and 5 μl TK Antibody-Eu(K), and placed in the dark for 60 minutes to end the reaction after uniform mixing. The data was read from PerkinElmer EnVision plate reader ([…]), the 665/615 ratio was calculated, and the data was analyzed.
(§5) ? tested samples ? Compounds from the examples.
(§6) ? data analysis ? Minimum 665/615 ratio (Rmin, 665/615 ratio under the condition that 10.4 μM positive control drug LDK-378 was added)
(§7) Maximum 665/615 ratio (Rmax, 665/615 ratio under the condition that no compound was added)
(§8) Tested 665/615 ratio (Rcompound, 665/615 ratio under the condition that a given concentration of compound was added) Inhibition rate (%)=[1−(Rcompound−Rmin)/(Rmax−Rmin)]×100
as §1

L1196M mutant ALK kinase = molecular target: T3, L1196M mutant ALK kinase (Homo sapiens, UniProt Q9UM73, L1196M); assay: HTRF KinEASE-TK assay, inhibitory activity on L1196M mutant ALK kinase; type: biochemical; conditions: L1196M mutant ALK 1 ng/μl, substrate 1 μM, ATP 5 μM, 30° C. 35 minutes, read-out: Inhibition on ALK kinases (L1196M mutant), IC50
T3 construct: purchased Sino-US Crown Bioscience, Inc. batch number ALKm_20110923
Text: 2. Inhibitory Activities of the Compounds of the Present Invention on L1196M Mutant ALK Kinases
? experimental method ? HTRF KinEASE™-TK Assay kit from Cisbio company was used to detect inhibitory activities of the compounds on L1196M mutant ALK kinases.
as §2
as §3, with “L1196M mutant” for “Wild Type”, “ALKm_20110923);” for “ALK 20110607);”, “A-7699, batch number 051M7014V);” for “A-7699);”
as §4, with “5 μM),” for “2004),”, “L1196M mutant” for “Wildtype”
as §5, §6, §7, §8, §1

T3 sequence (Q9UM73 19-1620 L1196M): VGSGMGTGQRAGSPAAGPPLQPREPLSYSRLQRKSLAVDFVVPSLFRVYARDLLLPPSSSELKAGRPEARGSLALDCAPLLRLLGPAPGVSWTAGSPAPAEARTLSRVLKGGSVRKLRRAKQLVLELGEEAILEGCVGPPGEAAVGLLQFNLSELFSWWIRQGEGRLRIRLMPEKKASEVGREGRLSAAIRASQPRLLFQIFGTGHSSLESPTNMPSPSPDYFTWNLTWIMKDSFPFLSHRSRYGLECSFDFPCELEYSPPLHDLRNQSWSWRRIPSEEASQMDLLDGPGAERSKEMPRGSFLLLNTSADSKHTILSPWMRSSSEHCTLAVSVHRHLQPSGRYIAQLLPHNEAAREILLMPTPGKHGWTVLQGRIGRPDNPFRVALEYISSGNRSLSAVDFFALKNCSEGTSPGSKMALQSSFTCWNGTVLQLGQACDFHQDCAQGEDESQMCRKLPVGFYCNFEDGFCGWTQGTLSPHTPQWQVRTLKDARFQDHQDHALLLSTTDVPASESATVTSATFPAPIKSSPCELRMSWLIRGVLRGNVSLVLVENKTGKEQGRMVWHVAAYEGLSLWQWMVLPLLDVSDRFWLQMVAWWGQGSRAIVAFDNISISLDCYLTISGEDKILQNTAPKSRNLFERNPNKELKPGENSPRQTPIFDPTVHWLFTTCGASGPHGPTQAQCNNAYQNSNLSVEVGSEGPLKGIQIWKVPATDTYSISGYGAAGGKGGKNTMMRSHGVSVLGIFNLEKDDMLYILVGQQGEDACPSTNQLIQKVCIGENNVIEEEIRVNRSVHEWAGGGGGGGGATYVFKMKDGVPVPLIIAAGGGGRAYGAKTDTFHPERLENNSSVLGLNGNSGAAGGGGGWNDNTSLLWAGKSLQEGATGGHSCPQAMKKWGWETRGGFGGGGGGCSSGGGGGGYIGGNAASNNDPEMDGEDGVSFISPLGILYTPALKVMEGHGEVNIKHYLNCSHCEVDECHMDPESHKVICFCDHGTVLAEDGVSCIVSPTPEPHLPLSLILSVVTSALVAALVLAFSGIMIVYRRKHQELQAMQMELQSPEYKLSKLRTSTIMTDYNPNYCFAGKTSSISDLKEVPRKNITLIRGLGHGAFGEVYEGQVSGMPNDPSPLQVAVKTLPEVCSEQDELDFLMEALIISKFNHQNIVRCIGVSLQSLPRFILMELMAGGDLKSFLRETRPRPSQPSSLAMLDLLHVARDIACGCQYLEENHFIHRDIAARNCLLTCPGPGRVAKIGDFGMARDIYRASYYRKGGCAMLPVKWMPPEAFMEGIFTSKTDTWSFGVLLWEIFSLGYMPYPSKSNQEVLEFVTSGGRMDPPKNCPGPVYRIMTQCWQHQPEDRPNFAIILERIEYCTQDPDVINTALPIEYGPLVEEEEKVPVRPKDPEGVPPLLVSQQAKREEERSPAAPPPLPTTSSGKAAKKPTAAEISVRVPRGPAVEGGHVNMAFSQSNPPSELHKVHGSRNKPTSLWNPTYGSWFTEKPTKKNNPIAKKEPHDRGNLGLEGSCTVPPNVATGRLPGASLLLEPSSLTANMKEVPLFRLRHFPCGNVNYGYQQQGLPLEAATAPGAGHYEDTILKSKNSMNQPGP
Sequence of cytochrome P450 2D6 (P10635 whole entry): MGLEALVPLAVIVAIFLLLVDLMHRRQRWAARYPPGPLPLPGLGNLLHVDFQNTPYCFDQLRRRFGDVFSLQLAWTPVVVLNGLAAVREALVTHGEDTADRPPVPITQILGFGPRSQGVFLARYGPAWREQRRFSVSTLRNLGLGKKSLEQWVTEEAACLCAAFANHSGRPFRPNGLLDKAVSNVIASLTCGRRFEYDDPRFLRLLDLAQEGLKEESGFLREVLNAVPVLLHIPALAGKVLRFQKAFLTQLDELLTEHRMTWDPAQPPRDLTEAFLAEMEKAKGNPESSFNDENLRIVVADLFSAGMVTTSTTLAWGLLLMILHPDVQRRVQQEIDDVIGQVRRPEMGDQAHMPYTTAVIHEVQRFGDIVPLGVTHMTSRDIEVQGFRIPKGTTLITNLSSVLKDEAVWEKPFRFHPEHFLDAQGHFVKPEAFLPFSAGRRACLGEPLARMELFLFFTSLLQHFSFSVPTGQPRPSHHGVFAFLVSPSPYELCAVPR
Sequence of cytochrome P450 3A4 (P08684 whole entry): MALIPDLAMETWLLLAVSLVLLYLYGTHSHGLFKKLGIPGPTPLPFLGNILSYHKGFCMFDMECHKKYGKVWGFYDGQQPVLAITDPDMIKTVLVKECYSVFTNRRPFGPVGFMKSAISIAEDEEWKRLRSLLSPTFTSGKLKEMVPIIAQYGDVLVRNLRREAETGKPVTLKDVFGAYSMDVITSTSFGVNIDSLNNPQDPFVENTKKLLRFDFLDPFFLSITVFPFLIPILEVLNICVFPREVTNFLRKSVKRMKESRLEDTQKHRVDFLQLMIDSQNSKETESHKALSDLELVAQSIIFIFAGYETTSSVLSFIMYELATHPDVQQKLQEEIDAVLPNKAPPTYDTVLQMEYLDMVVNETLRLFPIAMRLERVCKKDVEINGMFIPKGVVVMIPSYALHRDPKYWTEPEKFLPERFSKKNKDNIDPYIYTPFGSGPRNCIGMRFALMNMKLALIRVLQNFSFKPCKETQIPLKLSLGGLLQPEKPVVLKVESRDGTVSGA
Sequence of cytochrome P450 2C19 (P33261 whole entry): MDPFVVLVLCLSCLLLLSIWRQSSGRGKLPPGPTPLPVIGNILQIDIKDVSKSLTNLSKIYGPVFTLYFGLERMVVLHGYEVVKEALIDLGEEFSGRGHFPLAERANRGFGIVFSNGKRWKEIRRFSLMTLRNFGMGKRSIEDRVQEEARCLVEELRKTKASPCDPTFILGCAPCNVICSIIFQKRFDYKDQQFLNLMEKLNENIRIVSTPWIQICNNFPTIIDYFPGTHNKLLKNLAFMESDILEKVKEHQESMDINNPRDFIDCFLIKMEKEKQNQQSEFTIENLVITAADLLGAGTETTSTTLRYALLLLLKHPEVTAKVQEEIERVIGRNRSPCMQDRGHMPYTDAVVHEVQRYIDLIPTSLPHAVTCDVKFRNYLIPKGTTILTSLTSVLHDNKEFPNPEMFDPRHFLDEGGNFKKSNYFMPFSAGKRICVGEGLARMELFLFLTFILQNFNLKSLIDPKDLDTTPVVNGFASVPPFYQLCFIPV
T2 sequence (Q9UM73 19-1620): as the sequence (Q9UM73 19-1620 L1196M) above, with M1178L counted along it
Sequence of cytochrome P450 2C9 (P11712 whole entry): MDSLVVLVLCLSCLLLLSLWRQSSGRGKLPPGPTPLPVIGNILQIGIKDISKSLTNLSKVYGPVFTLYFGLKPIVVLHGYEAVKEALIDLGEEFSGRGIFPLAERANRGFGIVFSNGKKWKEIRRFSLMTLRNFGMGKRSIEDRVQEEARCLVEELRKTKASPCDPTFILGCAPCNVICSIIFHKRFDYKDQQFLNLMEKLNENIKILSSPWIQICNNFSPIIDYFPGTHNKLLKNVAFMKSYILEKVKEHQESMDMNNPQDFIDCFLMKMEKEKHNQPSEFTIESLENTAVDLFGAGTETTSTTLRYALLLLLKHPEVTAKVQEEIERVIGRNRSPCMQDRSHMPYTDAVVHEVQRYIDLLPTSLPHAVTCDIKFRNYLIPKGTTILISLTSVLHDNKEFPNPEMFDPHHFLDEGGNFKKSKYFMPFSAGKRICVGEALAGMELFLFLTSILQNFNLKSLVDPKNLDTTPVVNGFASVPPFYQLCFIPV

Row | SMILES | IC50 (NCI-H2228 cell line) [nM] | IC50 (cytochrome P450 1A2) [nM] | IC50 (cytochrome P450 2C9) [nM] | IC50 (cytochrome P450 2C19) [nM] | IC50 (cytochrome P450 2D6) [nM] | IC50 (cytochrome P450 3A4) [nM] | IC50 (Karpas-299 cell line) [nM] | IC50 (Wild Type ALK kinase) [nM] | IC50 (L1196M mutant ALK kinase) [nM]
1 | Cc1cc(Nc2ncc(Cl)c(Nc3cn(C)nc3S(=O)(=O)C(C)C)n2)c(OC(C)C)cc1C1CC(C)N(C)C(C)C1 (centres unmarked) [Final product 97] | 154 | > 10000 | > 10000 | > 10000 | > 10000 | > 10000 |  |  | 
2 | COCCN1CCC(c2cc(OC3CC3)c(Nc3ncc(Cl)c(Nc4cn(C)nc4S(=O)(=O)CC(C)C)n3)cc2C)CC1 [Final product 83] | 53 |  |  |  |  |  | 11 |  | 
3 | COC1CN(C)CCC1c1cc(OC2CC2)c(Nc2ncc(Cl)c(Nc3cn(C)nc3S(=O)(=O)CC(C)C)n2)cc1C (centres unmarked) [Final product 59] | 156 |  |  |  |  |  | 52 |  | 
4 | Cc1cc(Nc2ncc(Cl)c(Nc3cn(C)nc3S(=O)(=O)C(C)C)n2)c(OC2CC2)cc1C1CCN(C)CC1 [Final product 51] |  | > 10000 | > 10000 | > 10000 | > 10000 | > 10000 |  | 2 | 4
5 | CC(C)S(=O)(=O)c1nn(C)cc1Nc1nc(Nc2cc(F)c(C3CCN(C)CC3)cc2OC2CC2)ncc1Cl [Final product 44] |  | > 10000 | > 10000 | > 10000 | > 10000 | > 10000 |  | 3 | 4
6 | Cc1cc(Nc2ncc(Cl)c(Nc3cn(C)nc3S(=O)(=O)C(C)C)n2)c(OC2CC2)cc1C1CCN(C)C(=O)C1 (centres unmarked) [Final product 103] | 66 |  |  |  |  |  | 10 |  | 
7 | Cc1cc(Nc2ncc(Cl)c(Nc3cn(C)nc3S(=O)(=O)C(C)C)n2)c(OC2CC2)cc1C1CCC(N2CCN(C)CC2)CC1 (centres unmarked) [Final product 202] | 141 | > 10000 | > 10000 | > 10000 | > 10000 | > 10000 |  |  | 
8 | Cc1cc(Nc2ncc(Cl)c(Nc3cn(C)nc3S(=O)(=O)C(C)C)n2)c(OC(C)C)cc1C1CCN(C)CC1 [Final product 80] |  | > 10000 | > 10000 | > 10000 | > 10000 | > 10000 |  | 4 | 8
9 | Cc1cc(Nc2ncc(Cl)c(Nc3cn(C)nc3S(=O)(=O)C(C)C)n2)c(OC2CC2)cc1C1CCCN(C)C1 (centres unmarked) [Final product 60] | 28 | > 10000 | > 10000 | > 10000 | > 10000 | > 10000 |  |  | 
10 | Cc1cc(Nc2ncc(Cl)c(Nc3cn(C)nc3S(=O)(=O)C(C)C)n2)c(OC2CC2)cc1C1CCN(C)C(C)(C)C1 (centres unmarked) [Final product 100] | 61 |  |  |  |  |  | 6 |  | 
11 | Cc1cc(Nc2nc(Nc3cc(C)c(C4CCN(C)CC4)cc3OC(C)C)ncc2Cl)n[nH]1 [Final product 212, 5-chloro-N^2-[2-isopropoxy-4-(1-methyl-piperidin-4-yl)-5-methyl-phenyl]-N^4-[5-methyl-1H-pyrazol-3-yl]-pyrimidin-2,4-diamine, reference compound] | 725 |  |  |  |  |  |  | 13 | 37
12 | Cc1cc(Nc2nc(Nc3cc(C)c(C4CCN(CCO)CC4)cc3C)ncc2Cl)n[nH]1 [Final product 215, reference compound] | 1040 |  |  |  |  |  |  | 28 | 39
13 | Cc1cc(Nc2nc(Nc3cc(C)c([C@H]4CC[C@H](N5CCN(C)CC5)CC4)cc3F)ncc2Cl)[nH]n1 [Final product 218, reference compound] | 1070 |  |  |  |  |  |  | 27 | 49
